Consider 15 compounds from patent publication US5004742A, “Benzothiazine-1,1-dioxide derivatives” (Nippon Hypox Laboratories Incorporated, priority 1989, dated 1991).

Structures are written as SMILES.

Data set [1] has as its target T1, hyaluronidase taken from bovine testicles (Bos taurus, UniProt Q2YDK3).
T1 construct: purchased Sigma Co; host or cells: bovine testicles
T1 sequence (Q2YDK3 36-553): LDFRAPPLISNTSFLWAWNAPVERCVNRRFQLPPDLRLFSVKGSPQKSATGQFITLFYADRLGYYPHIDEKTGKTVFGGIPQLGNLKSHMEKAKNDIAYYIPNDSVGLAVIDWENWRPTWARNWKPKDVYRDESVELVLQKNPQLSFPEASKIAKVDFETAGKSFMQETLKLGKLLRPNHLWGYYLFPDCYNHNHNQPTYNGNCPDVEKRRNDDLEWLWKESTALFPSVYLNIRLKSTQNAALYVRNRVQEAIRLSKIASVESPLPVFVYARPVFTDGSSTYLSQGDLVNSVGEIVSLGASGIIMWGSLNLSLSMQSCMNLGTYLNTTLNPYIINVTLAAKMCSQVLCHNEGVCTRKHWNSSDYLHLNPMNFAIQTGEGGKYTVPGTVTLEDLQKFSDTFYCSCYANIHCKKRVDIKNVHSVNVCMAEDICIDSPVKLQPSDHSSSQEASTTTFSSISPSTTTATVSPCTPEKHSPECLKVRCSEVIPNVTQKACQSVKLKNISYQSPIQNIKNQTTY
Put plainly: Effect on hyaluronidase activity. The format is biochemical. To be noted: concentration range 0.01-0.3 mM; bovine testicular hyaluronidase, pH 3.5. On the procedure:
0.8 mg/ml of a hyaluronidase (a product of Sigma Co.) taken from bovine testicles was used as an enzyme. Test compounds (compound Nos. 1, 2, 4, 7, 8, 9 and 13) were dissolved at various concentrations in a 1 M acetate buffer (pH 3.5) and heated at 37° C. for 20 minutes. Then, calcium chloride was added to each of the resulting solutions so that the calcium chloride concentration became 5 mM, and each of the resulting mixtures was heated at 37° C. for 20 minutes.
Thereto was added potassium hyaluronate so that its concentration in the buffer became 2.4 mg/ml, and the mixture was heated at 37° C. for 40 minutes.
After the termination of the reaction, the amount of the substrate hydrolyzed was determined at 585 nm using the Elson-Morgan's procedure, from which there were determined the effects of each test compound at various concentrations on the normal enzymatic reaction.

The test system of data set [2] is rat gastric mucosa. The format is in vivo. The conditions noted are these: 50 mg/kg p.o. On the procedure:
The compound No. 1 of the present invention and two known cyclooxygenase inhibitors, i.e. Indometacin and Piroxicam were examined for action on rat gastric mucosa. That is, the compound No. 1, Indometacin or Piroxicam was administered orally to male SD rats (body weight: 200-250 g) which had been fasted for 24 hours. After the administration, the rats were allowed to no food and no water for 48 hours. Then, the stomach of each rat was removed under ether anesthesia and fixed with formalin. The resulting stomach was incised and the length of the mucous ulcer generated in the glandular portion of the stomach was measured using a dissecting microscope (magnification of 10).

The test system of data set [3] is rat peritoneal mast cells. Put plainly: Histamine liberation from rat peritoneal mast cells by concanavalin A. It is filed as cell-based. To be noted: Mast cell, test compound 0.2 mM, phosphatidylserine 3.0 μg/ml. As for the experimental part:
This test was effected in accordance with the method of R. P. Siraganian [J. Immunol., 114, 886 (1974)]. That is, a Locke solution containing phosphatidylserine, a test compound and a suspension of rat peritoneal mast cells was heated for 20 minutes at 37° C. Incidentally, the concentrations of phosphatidylserine and the test compound in the Locke solution were 3.0 μg/ml and 0.2 mM, respectively. A concanavalin A solution was added to the Locke solution, and the mixture was subjected to a reaction for 10 minutes at 37° C. After ice-cooling, the reaction mixture was subjected to centrifugation for 10 minutes at 4° C. Both the supernatant and the precipitate were measured for histamine content by the method of Shore et al. [J. Exp. Ther., 127, 182 (1959)] to determine a ratio of histamine liberated.

Data set [4] relates to rat plantar edema induced by carrageenin. Put plainly: Action against rat plantar edema induced by carrageenin. The format is in vivo. On the procedure:
Male Sprague-Dawley rats weighing 200-250 g were injected s.c. (subcutaneously) with 0.1 ml of carrageenin into the subplantar region of the right hind paw. 60 minutes before the carrageenin administration, a test compound (compound No. 1) had been administered p.o. (orally). […] Thus, the anti-inflammatory effect of the compound of the present invention was proven in this animal test.

Data set [5] has as its system male ddy mice. Put plainly: Acute toxicity by intravenous injection. The format is in vivo. The conditions noted are these: 10-500 mg/kg, 10 mice per group. As for the experimental part:
The compound of the present invention was further tested for acute toxicity by intravenous injection using male ddy mice. There was no death when the compound No. 1 of the present invention was administered in an amount of 10-500 mg/kg (each group consisted of 10 mice).

In data set [6] the test system is rat 48-hour homologous PCA reaction. Kind of data set: Rat 48-hour homologous PCA reaction. The conditions noted are these: 200 mg/kg p.o. 60 minutes before antigen; for Amount of colorant which leaked out: control 9.7 ± 1.9. It is filed as in vivo. On the procedure:
Male SD rats weighing 200-250 g were injected with 0.1 ml of a rat anti-egg albumin serum diluted with a physiological saline solution, intradermally at the back in order to passively sensitize the rats. After 48 hours, 0.5 ml of 1% Evans Blue containing 5 mg of antigen (egg albumin) was administered intravenously. After 30 minutes, each rat was sacrificed by bleeding and the skin was peeled off. Then, the amount of the coloring material in the lesion was determined by the method of Katayama et al. [Microbial. Immunol., 122 (2), 89 (1987)]. Incidentally, each test compound had been administered orally 60 minutes before the antigen administration.

The test system of data set [7] is rat peritoneal mast cells. To be noted: 0.3 mM; concanavalin A; Chem. Pharm. Bull., 33 (9), 3738 (1985); cited from earlier work.
Data set [8] deals with T1, hyaluronidase taken from bovine testicles. The conditions noted are these: Chem. Pharm. Bull., 33 (9), 3738 (1985), read-out: "50% enzyme inhibition" concentration; cited from earlier work.

For the compound `CN1C(C(=O)Nc2ccccc2)=C(O)c2ccccc2S1(=O)=O` [4-hydroxy-2-methyl-N-(phenyl)-2H-1,2-benzothiazine-3-carboxamido-1,1-dioxide], in data set [1], the “effect on hyaluronidase activity” value is reported as “no effect”.

Take `COc1ccc2c(c1)c(CC(=O)O)c(C)n2C(=O)c1ccc(Cl)cc1` [Indometacin]: the “ulcer formation, in words” value in data set [2] was “very serious ulcer”. Also, the “Ulcer index mean S.E.” value in data set [2] (rats fasted 24 hours, 48 hours after administration) was 42.8 ± 8.7.

By inhibition is commonly meant the relative decrease from the control value, in per cent. In the case of `CN1C(C(=O)Nc2ccccc2-c2nn[nH]n2)=C(O)c2ccccc2S1(=O)=O` [No. 1, 4-hydroxy-2-methyl-N-[2'-(tetrazo-5"-yl)phenyl]-2H-1,2-benzothiazine-3-carboxamido-1,1-dioxide], the inhibition at 200 µM in data set [3] is 93.9%. Besides, the swelling percent in data set [4] (200 mg/kg p.o. 60 min before carrageenin, 30 minutes after carrageenin administration, control 18.2%) is recorded as 8.0%. The “inhibition (%) of edema, in words” value in data set [4] (200 mg/kg p.o., 1, 1.5, 2 and 3 hours after carrageenin administration) is listed as “About the same inhibition”. The inhibition of edema in data set [4] (200 mg/kg p.o., 30 minutes after carrageenin administration) is on record as 54%. In data set [5], the “death in acute toxicity test” value was “no death”. In data set [6], the “Suppression (%)” value is 65.1% and the “Amount of colorant which leaked out” value amounted to 3.4 ± 1.3 μg/site.

Consider `CN1C(C(=O)Nc2ccccc2C(=O)O)=C(O)c2ccccc2S1(=O)=O` [No. 2, 4-Hydroxy-2-methyl-N-(2'-carboxyphenyl)-2H-1,2-benzothiazine-3-carboxamido-1,1-dioxide], for which the inhibition at 200 µM in data set [3] is 81.3%. Moreover, in data set [6], the “Suppression (%)” value is 29.3% and the “Amount of colorant which leaked out” value is recorded as 6.8 ± 2.3 μg/site.

`CN1C(C(=O)Nc2ccc(Cl)cc2C(=O)O)=C(O)c2ccccc2S1(=O)=O` [No. 3, 4-Hydroxy-2-methyl-N-(2'-carboxy-4'-chlorophenyl)-2H-1,2-benzothiazine-3-carboxamido-1,1-dioxide]: the inhibition at 200 µM in data set [3] was determined as 65%.

As to `CN1C(C(=O)Nc2cc(Cl)ccc2C(=O)O)=C(O)c2ccccc2S1(=O)=O` [No. 4, 4-Hydroxy-2-methyl-N-(2'-carboxy-5'-chlorophenyl)-2H-1,2-benzothiazine-3-carboxamido-1,1-dioxide], the inhibition at 200 µM in data set [3] amounted to 85.1%.

For `Cc1cccc(NC(=O)C2=C(O)c3ccccc3S(=O)(=O)N2C)c1C(=O)O` [No. 5, 4-Hydroxy-2-methyl-N-(2'-carboxy-3'-methylphenyl)-2H-1,2-benzothiazine-3-carboxamido-1,1-dioxide], the inhibition at 200 µM in data set [3] is 85.2%.

Regarding `Cc1ccc(NC(=O)C2=C(O)c3ccccc3S(=O)(=O)N2C)c(C(=O)O)c1` [No. 6, 4-Hydroxy-2-methyl-N-(2'-carboxy-4'-methylphenyl)-2H-1,2-benzothiazine-3-carboxamido-1,1-dioxide], the inhibition at 200 µM in data set [3] stood at 63%.

In the case of `CN1C(C(=O)Nc2ccc(O)cc2C(=O)O)=C(O)c2ccccc2S1(=O)=O` [No. 7, 4-Hydroxy-2-methyl-N-(2'-carboxy-4'-hydroxyphenyl)-2H-1,2-benzothiazine-3-carboxamido-1,1-dioxide], the inhibition at 200 µM in data set [3] was 86%.

In the case of `CN1C(C(=O)Nc2c(O)cccc2C(=O)O)=C(O)c2ccccc2S1(=O)=O` [No. 8, 4-Hydroxy-2-methyl-N-(2'-carboxy-6'-hydroxyphenyl)-2H-1,2-benzothiazine-3-carboxamido-1,1-dioxide], in data set [3], the inhibition at 200 µM came to 83.7%.

For `CN1C(C(=O)Nc2cc([N+](=O)[O-])ccc2C(=O)O)=C(O)c2ccccc2S1(=O)=O` [No. 9, 4-Hydroxy-2-methyl-N-(2'-carboxy-5'-nitrophenyl)-2H-1,2-benzothiazine-3-carboxamido-1,1-dioxide], the inhibition at 200 µM in data set [3] is 106%.

On to `CN1C(C(=O)Nc2cccc(C(=O)O)c2)=C(O)c2ccccc2S1(=O)=O` [No. 10, 4-Hydroxy-2-methyl-N-(3'-carboxyphenyl)-2H-1,2-benzothiazine-3-carboxamido-1,1-dioxide], for which, in data set [3], the inhibition at 200 µM was 90.7%.

In the case of `CN1C(C(=O)Nc2ccc(C(=O)O)cc2)=C(O)c2ccccc2S1(=O)=O` [No. 11, 4-Hydroxy-2-methyl-N-(4'-carboxyphenyl)-2H-1,2-benzothiazine-3-carboxamido-1,1-dioxide], in data set [3], the inhibition at 200 µM came to 60.3%.

Turning to `CN1C(C(=O)Nc2ccccn2)=C(O)c2ccccc2S1(=O)=O` [Piroxicam], the “effect on hyaluronidase activity” value in data set [1] was “no effect”.

With `COc1ccc(/C=C/C(=O)Nc2ccccc2C(=O)O)cc1OC` [Tranilast], in data set [7], the “inhibition of histamine liberation” value is given as “about 20%”. Also, in data set [8], the IC50 is roughly 230 µM.
